The target of one data set is KDR (VEGFR2) (Homo sapiens (Human), UniProt P35968). The data set can be described thus: Kinase inhibition, Mobility Shift Assay (VEGFR2). It is filed as biochemical. In short, it runs like this:
(§1)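 Mobility shift assay: each kinase preincubated 10 min at room temperature with compound, then reacted with FAM-labeled peptide, MgCl2 and ATP at 28° C. for varying times. Substrate-to-product conversion read on Caliper; % inhibition normalised to no-kinase and DMSO controls, and IC50 fitted.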

The next data set deals with melanin. Nature of the data set: Binding capacity of compounds to melanin. The format is in vitro ADME. The note with it: Sepia officinalis (cuttlefish), melanin suspension (1 mg/mL); 1 mg/mL melanin suspension in PBS pH 7.4, 2 μM compound, 2 h at 37° C.; read-out: Fu % (percentage of free drug, not bound to melanin). In a few lines:
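Compound at 2 μM final incubated with 1 mg/mL Sepia melanin suspension in PBS pH 7.4 for 2 h at 37 °C with shaking; blank control in PBS with 0.1% BSA. Supernatant concentrations measured by LC-MS/MS; bound fraction from melanin versus control samples, free fraction as 100 − Fb.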

Another data set has as its target FLT4 (VEGFR3) (Homo sapiens (Human), UniProt P35916). Nature of the data set: Kinase inhibition, Mobility Shift Assay (VEGFR3). The format is biochemical. In a few lines:
as §1

The target of the next data set is FLT1 (VEGFR1) (Homo sapiens (Human), UniProt P17948). The data set can be described thus: Kinase inhibition, Mobility Shift Assay (VEGFR1). The format is biochemical. In a few lines:
as §1

The target of a further data set is EGFR (Homo sapiens (Human), UniProt P00533). Nature of the data set: Kinase inhibition, Mobility Shift Assay (EGFR). It is filed as biochemical. In short, it runs like this: as §1
The target of data set [1] is VEGFR2 autophosphorylation (pVEGFR2) in HUVEC cells (Homo sapiens (Human), UniProt P35968). Nature of the data set: Inhibition of VEGF-induced VEGFR2 autophosphorylation in HUVEC cells (ELISA). The note with it: 50 ng/ml human VEGF, compound 1 h. The format is cell-based. An excerpt: Vascular endothelial growth factor receptor 2 (VEGFR2) is a primary receptor for VEGF-induced endothelial cell signaling. After ligand binding, VEGFR2 is autophosphorylated and activated. The main function of signaling from VEGFR2 is to induce vascularization during development and after tissue injury, and to bypass blocked blood vessels. Pathologically, VEGF and VEGFR2 are involved in tumor angiogenesis and vascular leakage. They are considered to be main participants in many different cancers and ocular diseases that accompany pathological neovascularization. This assay measured the ability of the compounds to inhibit VEGF-induced VEGFR2 autophosphorylation (pVEGFR2) in HUVEC cells by using ELISA.
Culture cells in a cell culture flask to reach a fusion degree of 60%-80% before cell inoculation. Dilute the cell suspension to […] with a pre-warmed complete medium. Add 80 μL of the cell suspension to all wells of a 96-well cell plate (Corning-3599); and incubate the plate overnight at 37° C. in the presence of 5% CO2. Dissolve the compound powder to 10 mM with DMSO and store it in a nitrogen cabinet. Compound dilution plate: Add a reference compound Ponatinib or a compound to be tested to a 96 V-well plate (Axygen-WIpp 2280) at concentrations achieved as follows: performing 3-fold gradient dilution starting from 5 mM (5 μL of 10 mM compound solution plus 5 μL of DMSO) for a total of 8 concentration points. […] Transfer 20 μL of the diluted compound from the intermediate plate to a cell plate. Then, incubate the cell plate for 1 h at 37° C. in the presence of 5% CO2. After the compound was treated for 1 h, add 25 μL of 250 ng/ml human VEGF at a final concentration of 50 ng/ml to a 96-well plate; and incubate the plate for 5 min at 37° C. in the presence of 5% CO2, centrifuge the plate for 10 min at 3,000 rpm, remove the medium and wash the cells once with 300 μL of pre-chilled DPBS per well. Then, centrifuge the plate for 10 min at 4,000 rpm, remove DPBS, and add 110 μL of pre-chilled 1× cell lysis buffer per well to the 96-well plate. Shake the plate for 40 min at 4° C. Then, freeze the plate in a refrigerator at −80° C. On the next day, remove the plate from the refrigerator at −80° C., thaw the plate, centrifuge the plate for 10 min at 3500 rpm, and add 100 μL of the supernatant per well to an ELISA plate. Seal the plate and incubate it for 2 h at 37° C. Wash the wells 4 times with 1× wash buffer. Add 100 μL of recombinant detection antibody per well. Seal the plate, incubate the plate for 1 h at 37° C., and repeat the step of plate washing. Add 100 μL of secondary antibody per well. Seal the plate, incubate the plate for 30 min at 37° C., and repeat the step of plate washing. Add 100 μL of TMB (protected from light) per well. Seal the plate, incubate the plate for 30 min at 37° C., and add 100 μL of the stop solution per well. Gently shake for 30 sec, measure the absorbance with a SpectraMax® 340 PC 384 Absorbance Microplate Reader within 30 min, and read an optical density value at 450 nm. Conduct data analysis using XL Fit software:
Conduct curve fitting using the 4 Parameter Logistic Model or Sigmoidal Dose-Response Model:
X indicating the log value of compound concentration, Y indicating the inhibition ratio (% inhibition), Top indicating the readout of the negative control wells, and bottom indicating the readout of the positive control well.
(An ELISA detects its analyte on a solid surface through an enzyme-linked reagent.)

A short description of data set [2]: Thermodynamic solubility assay. The settings on record: aqueous buffer, pH 2, aqueous buffer, thermodynamic from solid.
Protocol: After sonication for 10 min, fix them on a shaker and shaking for 8 h at room temperature. After shaking, sonicate for 10 min and centrifuge for 15 min at 13,000 rpm. Pipette 0.1 mL of supernatant into a new tube, shake and rinse it with 5 mL, and discard the liquid. Transfer 0.5 mL of the supernatant again to a new tube, centrifuge it for 15 min at 13,000 rpm, then collect the supernatant (if necessary, dilute with water) and analyze it by LC-MS.
The sample concentrations at 3-5 points are subjected to fitting and reticle for quantification.

Each structure is given as a SMILES string. ≈ marks a conversion by molar mass, not a printed value. Some results are limits rather than exact numbers.

EGFR, sequence (P00533 25-1210): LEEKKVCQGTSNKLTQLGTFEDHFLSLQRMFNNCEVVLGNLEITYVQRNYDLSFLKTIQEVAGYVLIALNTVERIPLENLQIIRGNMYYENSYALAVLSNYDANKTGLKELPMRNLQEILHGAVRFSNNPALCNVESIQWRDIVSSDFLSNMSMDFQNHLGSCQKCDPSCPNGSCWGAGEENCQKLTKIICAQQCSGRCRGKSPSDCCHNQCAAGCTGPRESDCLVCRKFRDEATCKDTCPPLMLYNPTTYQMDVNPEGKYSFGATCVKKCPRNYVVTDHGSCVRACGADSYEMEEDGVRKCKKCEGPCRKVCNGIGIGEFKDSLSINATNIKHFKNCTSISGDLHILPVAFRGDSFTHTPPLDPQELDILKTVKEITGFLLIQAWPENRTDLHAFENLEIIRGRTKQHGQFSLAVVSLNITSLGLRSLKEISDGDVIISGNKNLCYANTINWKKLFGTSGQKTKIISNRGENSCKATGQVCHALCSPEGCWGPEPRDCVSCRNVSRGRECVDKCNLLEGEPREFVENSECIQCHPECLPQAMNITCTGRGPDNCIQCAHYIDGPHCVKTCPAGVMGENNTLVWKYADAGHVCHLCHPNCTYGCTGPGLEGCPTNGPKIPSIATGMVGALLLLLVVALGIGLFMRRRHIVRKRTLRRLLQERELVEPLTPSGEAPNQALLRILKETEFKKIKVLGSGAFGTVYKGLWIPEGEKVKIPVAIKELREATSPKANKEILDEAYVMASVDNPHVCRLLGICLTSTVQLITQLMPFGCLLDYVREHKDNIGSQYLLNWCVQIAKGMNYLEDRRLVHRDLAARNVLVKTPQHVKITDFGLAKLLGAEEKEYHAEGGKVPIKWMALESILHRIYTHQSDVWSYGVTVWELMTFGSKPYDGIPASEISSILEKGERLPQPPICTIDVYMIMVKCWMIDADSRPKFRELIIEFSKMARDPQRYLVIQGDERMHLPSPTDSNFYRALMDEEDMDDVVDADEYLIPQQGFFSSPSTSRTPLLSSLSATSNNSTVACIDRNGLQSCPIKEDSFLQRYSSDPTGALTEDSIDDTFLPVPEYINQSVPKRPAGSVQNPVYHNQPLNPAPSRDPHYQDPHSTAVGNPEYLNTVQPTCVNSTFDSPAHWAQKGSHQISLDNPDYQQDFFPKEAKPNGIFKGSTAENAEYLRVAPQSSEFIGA
FLT1 (VEGFR1), sequence (P17948 27-1338): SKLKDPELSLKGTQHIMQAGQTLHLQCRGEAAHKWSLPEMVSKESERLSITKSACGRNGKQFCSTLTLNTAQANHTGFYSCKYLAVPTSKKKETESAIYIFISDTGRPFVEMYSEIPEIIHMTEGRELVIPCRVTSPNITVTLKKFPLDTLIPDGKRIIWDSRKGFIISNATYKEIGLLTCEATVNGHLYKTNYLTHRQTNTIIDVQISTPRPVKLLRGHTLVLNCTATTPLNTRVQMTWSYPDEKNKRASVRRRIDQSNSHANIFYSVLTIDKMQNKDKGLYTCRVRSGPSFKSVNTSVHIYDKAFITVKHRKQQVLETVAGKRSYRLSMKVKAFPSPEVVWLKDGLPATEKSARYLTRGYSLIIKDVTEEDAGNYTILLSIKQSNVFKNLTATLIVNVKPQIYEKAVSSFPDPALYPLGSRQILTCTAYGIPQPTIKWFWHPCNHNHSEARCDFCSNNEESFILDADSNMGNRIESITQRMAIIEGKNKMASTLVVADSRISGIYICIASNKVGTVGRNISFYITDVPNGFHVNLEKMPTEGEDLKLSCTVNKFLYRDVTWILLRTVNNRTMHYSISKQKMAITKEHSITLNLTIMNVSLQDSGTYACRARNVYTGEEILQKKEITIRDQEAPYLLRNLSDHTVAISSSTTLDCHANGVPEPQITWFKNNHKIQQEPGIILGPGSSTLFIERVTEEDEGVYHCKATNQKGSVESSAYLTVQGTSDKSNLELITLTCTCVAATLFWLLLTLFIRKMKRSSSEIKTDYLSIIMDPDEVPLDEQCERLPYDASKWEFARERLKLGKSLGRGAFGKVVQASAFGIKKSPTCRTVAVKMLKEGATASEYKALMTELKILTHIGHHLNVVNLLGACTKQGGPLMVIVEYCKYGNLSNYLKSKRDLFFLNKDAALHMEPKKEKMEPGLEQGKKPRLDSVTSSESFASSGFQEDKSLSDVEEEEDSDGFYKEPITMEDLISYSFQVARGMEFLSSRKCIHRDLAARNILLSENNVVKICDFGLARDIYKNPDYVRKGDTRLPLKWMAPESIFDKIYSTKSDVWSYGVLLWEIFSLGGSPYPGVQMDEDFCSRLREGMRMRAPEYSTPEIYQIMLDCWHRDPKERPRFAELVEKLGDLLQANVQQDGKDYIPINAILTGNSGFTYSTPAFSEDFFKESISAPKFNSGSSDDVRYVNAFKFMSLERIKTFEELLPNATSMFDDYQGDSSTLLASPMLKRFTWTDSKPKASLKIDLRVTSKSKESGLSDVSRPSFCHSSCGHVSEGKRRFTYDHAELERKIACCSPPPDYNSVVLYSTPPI
KDR (VEGFR2), sequence (P35968 790-1356): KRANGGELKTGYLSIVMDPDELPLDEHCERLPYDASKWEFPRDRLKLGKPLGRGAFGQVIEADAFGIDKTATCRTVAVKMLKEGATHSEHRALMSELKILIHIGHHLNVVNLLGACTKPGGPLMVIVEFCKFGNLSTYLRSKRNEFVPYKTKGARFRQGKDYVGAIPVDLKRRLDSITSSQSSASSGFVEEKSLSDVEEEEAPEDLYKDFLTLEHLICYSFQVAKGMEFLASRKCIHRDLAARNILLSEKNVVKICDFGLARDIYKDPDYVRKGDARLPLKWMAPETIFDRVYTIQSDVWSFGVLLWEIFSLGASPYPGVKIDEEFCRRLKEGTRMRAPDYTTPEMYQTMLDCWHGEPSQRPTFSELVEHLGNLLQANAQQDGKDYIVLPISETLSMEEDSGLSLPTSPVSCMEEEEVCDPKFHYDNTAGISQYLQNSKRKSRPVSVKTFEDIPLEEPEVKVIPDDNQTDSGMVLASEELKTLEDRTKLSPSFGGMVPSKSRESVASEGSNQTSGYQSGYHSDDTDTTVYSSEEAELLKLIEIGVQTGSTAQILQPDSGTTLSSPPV
VEGFR2 autophosphorylation (pVEGFR2) in HUVEC cells, sequence (P35968 20-1356): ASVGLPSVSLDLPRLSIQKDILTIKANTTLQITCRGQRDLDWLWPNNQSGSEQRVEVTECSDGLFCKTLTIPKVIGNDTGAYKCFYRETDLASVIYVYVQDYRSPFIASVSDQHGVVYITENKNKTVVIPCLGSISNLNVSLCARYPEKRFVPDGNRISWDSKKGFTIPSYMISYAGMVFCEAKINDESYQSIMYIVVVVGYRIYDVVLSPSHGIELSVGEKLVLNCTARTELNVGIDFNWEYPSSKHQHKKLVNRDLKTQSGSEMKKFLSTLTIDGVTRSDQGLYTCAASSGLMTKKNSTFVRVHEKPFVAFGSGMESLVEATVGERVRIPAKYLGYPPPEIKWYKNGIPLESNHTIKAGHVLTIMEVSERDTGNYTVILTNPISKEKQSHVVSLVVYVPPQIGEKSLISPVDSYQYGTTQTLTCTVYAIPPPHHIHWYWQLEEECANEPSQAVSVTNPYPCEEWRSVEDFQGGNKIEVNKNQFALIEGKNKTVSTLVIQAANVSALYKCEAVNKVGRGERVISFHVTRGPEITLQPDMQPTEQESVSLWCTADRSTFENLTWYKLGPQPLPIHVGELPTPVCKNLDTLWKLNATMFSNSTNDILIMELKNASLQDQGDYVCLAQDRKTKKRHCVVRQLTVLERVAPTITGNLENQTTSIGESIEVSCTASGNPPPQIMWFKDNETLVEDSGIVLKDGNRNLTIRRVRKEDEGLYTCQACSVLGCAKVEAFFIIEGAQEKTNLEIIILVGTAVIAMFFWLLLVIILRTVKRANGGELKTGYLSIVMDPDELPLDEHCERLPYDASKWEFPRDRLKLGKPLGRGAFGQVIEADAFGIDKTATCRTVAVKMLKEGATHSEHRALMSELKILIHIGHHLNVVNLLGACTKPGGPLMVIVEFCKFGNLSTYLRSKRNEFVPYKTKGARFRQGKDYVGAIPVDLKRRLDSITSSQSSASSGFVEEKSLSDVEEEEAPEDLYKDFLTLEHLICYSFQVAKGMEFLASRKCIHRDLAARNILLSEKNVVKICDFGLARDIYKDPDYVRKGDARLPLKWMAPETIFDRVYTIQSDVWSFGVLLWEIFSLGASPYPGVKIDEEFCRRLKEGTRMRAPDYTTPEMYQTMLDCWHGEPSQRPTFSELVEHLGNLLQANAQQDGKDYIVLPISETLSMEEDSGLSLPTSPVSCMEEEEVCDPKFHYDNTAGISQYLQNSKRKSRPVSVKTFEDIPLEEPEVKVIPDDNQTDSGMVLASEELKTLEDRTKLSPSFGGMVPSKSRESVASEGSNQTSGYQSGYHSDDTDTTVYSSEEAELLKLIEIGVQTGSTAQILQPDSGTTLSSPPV

Usually IC50 stands for the point on the concentration scale where inhibition reaches its midpoint. As to `CNC(=O)c1ccccc1Sc1ccc2c(/C=C/c3ccc(OCCN4CCOCC4)cn3)n[nH]c2c1` [Compound I-3, N-methyl-2-({3-[(E)-2-{5-[2-(morpholin-4-yl)ethoxy]pyridin-2-yl}vinyl]-1H-indazol-6-yl}thio)benzamide], the IC50 was no more than 1 nM at KDR (VEGFR2); no more than 1 nM at FLT4 (VEGFR3); no more than 1 nM on FLT1 (VEGFR1); 6000 to 60000 nM on EGFR; no more than 1 nM in data set [1]. In addition, the fraction unbound at 2 h, 2 μM with melanin is 0.01 to 0.05.
Take `CNC(=O)c1cc(F)ccc1Sc1ccc2c(/C=C/c3ccc(OCCN4CCCC4)cn3)n[nH]c2c1` [Compound I-34, 5-fluoro-N-methyl-2-({3-[(E)-2-{5-[2-(pyrrolidin-1-yl)ethoxy]pyridin-2-yl}vinyl]-1H-indazol-6-yl}thio)benzamide]: the IC50 on KDR (VEGFR2) was 1 to 10 nM; at FLT4 (VEGFR3), 1 to 10 nM; at FLT1 (VEGFR1), 1 to 10 nM; on EGFR, 6000 to 60000 nM; in data set [1] it was no more than 1 nM. Moreover, in the data set with melanin, the fraction unbound at 2 h, 2 μM was greater than 0.05.
As for `CNC(=O)c1ccccc1Sc1ccc2c(/C=C/c3cc(OCCN4CCCC4)ccn3)n[nH]c2c1` [Compound I-20, N-methyl-2-({3-[(E)-2-{4-[2-(pyrrolidin-1-yl)ethoxy]pyridin-2-yl}vinyl]-1H-indazol-6-yl}thio)benzamide], the IC50 on KDR (VEGFR2) was in the range of 10 to 100 nM; on FLT4 (VEGFR3), 10 to 100 nM; on FLT1 (VEGFR1), 10 to 100 nM; on EGFR, 6000 to 60000 nM; in data set [1], 1 to 5 nM. For the same molecule, in the data set on melanin, the fraction unbound at 2 h, 2 μM lay in the range of 0.01 to 0.05.
Consider `CCNC(=O)c1cc(F)ccc1Sc1ccc2c(/C=C/c3ccc(CN4CCCC4)cn3)n[nH]c2c1` [Compound I-97, N-ethyl-5-fluoro-2-({3-[(E)-2-{5-[(pyrrolidin-1-yl)methyl]pyridin-2-yl}vinyl]-1H-indazol-6-yl}thio)benzamide], for which the IC50 at KDR (VEGFR2) was 1 to 10 nM; at FLT4 (VEGFR3), 1 to 10 nM; on FLT1 (VEGFR1), 1 to 10 nM; at EGFR, 6000 to 60000 nM; in data set [1] it was no more than 1 nM. In the data set with melanin, the fraction unbound at 2 h, 2 μM lay within 0.01 to 0.05.
A word on the solubility: it is the concentration that dissolves in the medium under given conditions. Higher therefore signals much dissolved substance. For the molecule `CNC(=O)c1ccccc1Sc1ccc2c(/C=C/c3ccc(OCC4CCCN4)cn3)n[nH]c2c1` (stereo not shown) [Compound I-14, N-methyl-2-({3-[(E)-2-{5-[(pyrrolidin-2-yl)methoxy]pyridin-2-yl}vinyl]-1H-indazol-6-yl}thio)benzamide], the IC50 is 1 to 10 nM on KDR (VEGFR2), 1 to 10 nM at FLT4 (VEGFR3), 1 to 10 nM on FLT1 (VEGFR1) and 6000 to 60000 nM on EGFR. This molecule showed a solubility at 8 h in data set [2] of 46.8 µg/mL (≈ 96.4 µM). Also, the fraction unbound at 2 h, 2 μM in the data set with melanin lay in the range of 0.01 to 0.05.
Regarding `CNC(=O)c1ccccc1Sc1ccc2c(/C=C/c3ccc(OCCN4CCCC4)cn3)n[nH]c2c1` [Compound I-6, N-methyl-2-({3-[(E)-2-{5-[2-(pyrrolidin-1-yl)ethoxy]pyridin-2-yl}vinyl]-1H-indazol-6-yl}thio)benzamide], the half-maximal inhibitory concentration (IC50) at KDR (VEGFR2) is 1 to 10 nM; on FLT4 (VEGFR3) it was 1 to 10 nM; on FLT1 (VEGFR1) it was no more than 1 nM; at EGFR it was 6000 to 60000 nM; in data set [1] it was 1 to 5 nM. Moreover, in the data set on melanin, the fraction unbound at 2 h, 2 μM is 0.01 to 0.05.
In the case of `CNC(=O)c1ccccc1Sc1ccc2c(/C=C/c3cnn(CCN4CCCC4)c3)n[nH]c2c1` [Compound I-9, N-methyl-2-({3-[(E)-2-{1-[2-(pyrrolidin-1-yl)ethyl]-1H-pyrazole-4-yl}vinyl]-1H-indazol-6-yl}thio)benzamide], the IC50 at KDR (VEGFR2) was 1 to 10 nM; at FLT4 (VEGFR3), 1 to 10 nM; at FLT1 (VEGFR1), 1 to 10 nM; on EGFR, 6000 to 60000 nM; in data set [1], no more than 1 nM. In addition, the fraction unbound at 2 h, 2 μM in the data set on melanin lay in the range of 0.01 to 0.05.
For the molecule `CN(C)Cc1ccc(/C=C/c2n[nH]c3cc(Sc4ccccc4C(=O)NC4CC4)ccc23)nc1` [Compound I-40, N-cyclopropyl-2-({3-[(E)-2-{5-[(dimethylamino)methyl]pyridin-2-yl}vinyl]-1H-indazol-6-yl}thio)benzamide], the concentration for half-maximal inhibition (IC50) on KDR (VEGFR2) is no more than 1 nM; at FLT4 (VEGFR3), 1 to 10 nM; at FLT1 (VEGFR1), no more than 1 nM; at EGFR, 6000 to 60000 nM; in data set [1], no more than 1 nM. Besides, the fraction unbound at 2 h, 2 μM in the data set with melanin was 0.01 to 0.05.
`CNC(=O)c1cc(F)ccc1Sc1ccc2c(/C=C/c3cnn(CCCN4CCCC4)c3)n[nH]c2c1` [Compound I-106]: the results for the half-inhibitory concentration (IC50) on KDR (VEGFR2) and at EGFR were 1 to 10 nM and 6000 to 60000 nM, respectively. The solubility at 8 h in data set [2] was 1580 µg/mL (≈ 3130 µM). Further, the fraction unbound at 2 h, 2 μM in the data set on melanin was greater than 0.05.

Values taken from patent US20260049071A1, “PROTEIN TYROSINE KINASE INHIBITOR AND MEDICAL USE THEREOF” (BEYANG THERAPEUTICS CO., LTD., priority 2022, published 2026).
